Results taken from patent US11278586B2, “Highly absorbable oral tyrosine formulation” (Kao Corporation, priority 2017, dated 2022).
Where a SMILES comes first, the peptide text is derived from it.

Tests used:
[1] = Bioabsorbability of tyrosine after oral administration to mice (plasma amino acids by LC-MS/MS); format: in vivo, C57B6J Mice; settings: oral 0.55 mmol/kg body weight; for administered dipeptide detected in the plasma: at any time after administration (15-60 min), results not shown
Description: C57B6J Mice (CLEA Japan, Inc., 8 weeks old, male) were acclimatized for 1 week, and then the mice were divided into 4 groups with similar body weights (N=4 for each group). Each of amino acids dissolved in water was orally administered to the mice by sonde at the following dose in Table 1. Venous blood was collected from the fundus using a heparin-treated micro hematocrit tube (VITREX) under isoflurane anesthesia before administration and 15, 30, 45, and 60 minutes after administration. These were centrifuged (8,000×g, 10 minutes, 4° C.) to obtain plasma. Thereafter, a 15% by mass of aqueous sulfosalicylic acid solution which was three times amount of the plasma was added thereto, mixed, and centrifuged (8,000×g, 10 minutes, 4° C.) to remove the protein, and the obtained plasma was used as a sample for analysis. Quantification of amino acids in the sample for analysis was performed using LC-MS/MS. Infinity 1290 (Agilent) was used for liquid chromatography, and 3200 QTRAP (AB Sciex) was used for mass spectrometry.
A tyrosine administration group and a tyrosine and glycine (each equimolar amount) mixed administration group were set as controls for the glycyltyrosine administration group. An alanyltyrosine administration group was also set for effect comparison.

Solubility in water = format: physicochemical; settings: dose of 0.55 mmol/kg body weight, an amount equivalent to 10 times the solubility of tyrosine
Description: Glycyltyrosine and alanyltyrosine are known to have high solubility as compared to tyrosine, and the solubility thereof in water at 20° C. is about 75 times and about 36 times that of tyrosine, respectively (Fust et al., (2001) J. Nutr.). […] In spite of this, an excellent action of improving bioabsorbability of tyrosine was confirmed only in the oral administration/ingestion of glycyltyrosine. Therefore, the action is considered not due to the improvement in solubility, but an effect unique to glycyltyrosine.

[2] = water at 20° C.; Fust et al. (2001) J. Nutr.; cited from earlier work

blood tyrosine concentration compared with the tyrosine administration group ([1]; 15 minutes after administration, Dunnett p<0.01, FIG. 1) | maximum blood concentration (Cmax) of tyrosine compared to the tyrosine administration group ([1]; FIG. 2) | blood glycine concentration versus the tyrosine and glycine mixed administration group ([1]; at any time after administration, FIG. 1) | area under the increased blood concentration-time curve (iAUC) of tyrosine compared to the tyrosine administration group ([1]; until 60 minutes after administration, FIG. 2) | SMILES | administered dipeptide detected in the plasma [1] | dissolution of the administration sample in water (Solubility in water) | solubility in water relative to that of tyrosine [2]
– | – | – | – | C[C@H](N)C(=O)N[C@@H](Cc1ccc(O)cc1)C(=O)O [alanyltyrosine, L-Alanyl-L-tyrosine, reference compound] (H-Ala-Tyr-OH) | not detected | completely dissolved | about 36 times
significantly higher | significantly high values | no significant difference | significantly high values | NCC(=O)N[C@@H](Cc1ccc(O)cc1)C(=O)O [glycyltyrosine, Glycyl-L-tyrosine dihydrate] (H-Gly-Tyr-OH) | not detected | completely dissolved | about 75 times
